Measurements reported in ChEMBL document CHEMBL1139863, “Synthesis and in vitro antiprotozoal activities of dicationic 3,5-diphenylisoxazoles” (J Med Chem, 2007).

How the values were obtained:
[1] = system: Trypanosoma brucei rhodesiense; assay: Antitrypanosomal activity against Trypanosoma brucei rhodesiense; type: functional, organism-based
Plasmodium falciparum = assay: Antiplasmodial activity against chloroquine-resistant Plasmodium falciparum K1; type: functional, organism-based
L6 = assay: Cytotoxicity against rat L6 cells; type: cell-based

Structure (SMILES) | IC50 [1] [nM] | IC50 (Plasmodium falciparum) [nM] | IC50 (L6) [nM]
CC(C)NC(=N)c1cccc(-c2cc(-c3cccc(C(=N)NC(C)C)c3)on2)c1 | 4980 | 43.1 | > 180000
CC(C)NC(=N)c1ccc(-c2cc(-c3ccc(C(=N)NC(C)C)cc3)on2)cc1 | 196 | 6.6 | > 176000
c1cc(-c2cc(-c3ccc(C4=NCCN4)cc3)on2)ccc1C1=NCCN1 | 87.2 | 4.1 | 1800
N=C(N)c1ccc(-c2cc(-c3ccccc3)on2)cc1 | 1120 | > 3300 | 18500
COc1cc(C(=N)N)ccc1-c1cc(-c2ccc(C(=N)N)cc2)no1 | 10.6 | 6 | 122000
N=C(N)c1ccc(-c2cc(-c3ccc(C(=N)N)cc3[N+](=O)[O-])no2)cc1 | 32.4 | 14.9 | 22200
COc1cc(C(=N)N)ccc1-c1cc(-c2cccc(C(=N)N)c2)no1 | 6.5 | 3.5 | 177000
N=C(N)c1cccc(-c2cc(-c3ccc(C(=N)N)cc3Cl)no2)c1 | 11.6 | 14.1 | 87400
N=C(N)c1ccc(-c2cc(-c3ccc(C(=N)N)cc3[N+](=O)[O-])on2)cc1 | 13.9 | 14.9 | 15800
N=C(N)c1ccc(-c2cc(-c3ccc(C(=N)N)cc3Cl)on2)cc1 | 15.5 | 7.9 | 41000
c1cc(C2=NCCN2)cc(-c2cc(-c3ccc(C4=NCCN4)cc3)on2)c1 | 1550 | 51.2 | 65000
CC(C)NC(=N)c1ccc(-c2cc(-c3cccc(C(=N)NC(C)C)c3)on2)cc1 | 316 | 34.7 | > 186000
c1cc(C2=NCCN2)cc(-c2cc(-c3ccc(C4=NCCN4)cc3)no2)c1 | 974 | 77 | 30200
N=C(N)c1ccc(-c2cc(-c3ccc(C(=N)N)cc3Cl)no2)cc1 | 23.2 | 55.5 | 5700
COc1cc(C(=N)N)ccc1-c1cc(-c2ccc(C(=N)N)cc2)on1 | 16.4 | 66.3 | 92600
N=C(N)c1ccc(-c2cc(-c3cccc(C(=N)N)c3)no2)cc1 | 6.3 | 57.8 | 24100
N=C(N)c1cccc(-c2cc(-c3ccc(C(=N)N)cc3[N+](=O)[O-])on2)c1 | 9 | 25.9 | 48000
N=C(N)c1cccc(-c2cc(-c3ccc(C(=N)N)cc3Cl)on2)c1 | 6.3 | 18.7 | 82700
CC(C)NC(=N)c1ccc(-c2cc(-c3cccc(C(=N)NC(C)C)c3)no2)cc1 | 488 | 10.6 | > 187000
N=C(N)c1ccc(-c2cc(-c3ccccc3)no2)cc1 | 1720 | > 3300 | 19100
N=C(N)c1ccc(-c2cc(-c3cccc(C(=N)N)c3)on2)cc1 | 3.5 | 2.5 | 31200
COc1cc(C(=N)N)ccc1-c1cc(-c2ccc(C(=N)N)cc2OC)on1 | 13 | 6.1 | 84800
N=C(N)c1ccc(-c2cc(-c3ccc(C(=N)N)cc3)on2)cc1 | 5.1 | 22.6 | 2100
N=C(N)c1cccc(-c2cc(-c3cccc(C(=N)N)c3)on2)c1 | 29 | 9.2 | 153000
N=C(N)c1cccc(-c2cc(-c3ccc(C(=N)N)cc3[N+](=O)[O-])no2)c1 | 19.4 | 30.4 | > 206000
c1cc(C2=NCCN2)cc(-c2cc(-c3cccc(C4=NCCN4)c3)on2)c1 | 18500 | 227 | 26200
COc1cc(C(=N)N)ccc1-c1cc(-c2cccc(C(=N)N)c2)on1 | 5.9 | 8.9 | 136000
C[C@@H]1CC[C@H]2[C@@H](C)C(=O)O[C@@H]3O[C@@]4(C)CC[C@@H]1[C@]32OO4 [ARTEMISININ] | – | 6.7 | –
N=C(N)c1ccc(-c2ccc(-c3ccc(C(=N)N)cc3)o2)cc1 [FURAMIDINE] | – | – | 16400
Nc1nc(N)nc(Nc2ccc([As]3SCC(CO)S3)cc2)n1 (centres undefined) [MELARSOPROL] | 6.4 | – | –
